The test system of experiment [1] is Trichophyton rubrum KD-1130. The experiment in a line: Antifungal activity evaluation test: minimum inhibitory concentration (MIC), broth dilution by reference to CLSI M38-A2. Type of experiment: cell-based. Conditions: KD1130, read-out: MIC (T. rubrum). The protocol:
(§1) The minimum inhibitory concentration (MIC) for Trichophyton mentagrophytes and Trichophyton rubrum was measured by the following procedure by reference to Clinical and Laboratory standards Institute (CLSI) guidelines M38-A2. Reference document for the measurement method: National Committee for a Clinical Laboratory Standards. Reference method for broth dilution antifungal susceptibility testing of filamentous fungi. Approved standard Second edition M38-A2. Wayne, Pa.: National Committee for a Clinical Laboratory Standards, 2008. • Test compound solution: A test compound was dissolved in dimethyl sulfoxide (DMSO) at a concentration of 2.5 mg/mL to give a stock solution. The stock solution was appropriately diluted with DMSO to prepare a 2-fold dilution series. As control compounds, terbinafine and amorolfine were used. • Test strains: Trichophyton mentagrophytes SM-110 and Trichophyton rubrum KD-1130 were used. • Preparation of fungal culture to be inoculated: The above-mentioned test strain was suspended in 0.05% Tween 80-containing saline, and the fungi of the genus Trichophyton were prepared to a fungal concentration of 1×10^6 cells/mL by using a hemocytometer. Then, using MOPS-buffered RPMI 1640 medium (pH 7.0) as a test medium, a fungal culture of the fungi of the genus Trichophyton was diluted 250-fold (4×10^3 cells/mL) to give a fungal culture for inoculation. • MIC measurement of genus Trichophyton fungi: MOPS-buffered RPMI 1640 medium (pH 7.0) was dispensed by 100 μL to given wells of a 96 well U-bottom microplate. Then, the test compound solution (2 μL) was added, the mixture was sufficiently stirred by a plate mixer. The fungal culture (100 μL) was inoculated and the mixture was cultured at 35° C. for 4 days (final fungal concentration: 2×10^3 cells/mL). After the culture, the minimum drug concentration of a well in which a growth inhibitory action of not less than 80% was visually observed as compared to a growth control was taken as a minimum inhibitory concentration (MIC: μg/mL).
(§2) The abbreviations in the Tables mean the following fungi and compounds. • T. menta.: Trichophyton mentagrophytes • T. rubrum: Trichophyton rubrum • TBF: terbinafine • AMF: amorolfine
In general terms: Dilution methods test growth across graded concentrations, often in twofold steps.

For experiment [2], the system named is Trichophyton mentagrophytes SM-110. The experiment is described as above. Type of experiment: cell-based. Conditions: SM110, read-out: MIC (T. menta.). The protocol: as §1, §2

The values that follow come from patent US10647675B2 (priority 2015, dated 2020).

In brackets after ≈: the same amount, converted by molar mass.

`Cc1nn(C)c(C)c1-c1cccnc1Oc1ccc(C(F)(F)F)cc1` [I-341, 2-[4-(trifluoromethyl)phenoxy]-3-(1,3,5-trimethyl-1H-pyrazol-4-yl)pyridine]: the MIC (usually the smallest concentration in the dilution series that meets the test's criterion for growth inhibition) in experiment [1] was at most 0.1 µg/mL; in experiment [2], 0.2 to 0.78 µg/mL (≈ 0.576 to 2.25 µM).
As for `COc1ccccc1-c1cccnc1Oc1ccc(N(C)C)nc1` [I-365], the figures for the MIC in experiment [1] and in experiment [2] were 0.2 to 0.78 µg/mL (≈ 0.622 to 2.43 µM) and at most 0.1 µg/mL, respectively.
Taken in the same sequence, the figures for `COc1ccncc1-c1cc(F)cnc1Oc1ccc(C(F)(F)F)cc1` [I-216, 5-fluoro-4′-methoxy-2-[4-(trifluoromethyl)phenoxy]-3,3′-bipyridine] were at most 0.1 µg/mL and at most 0.1 µg/mL.
The like results for `Cc1nn(C)c(Cl)c1-c1cccnc1Oc1ccc(C(F)(F)F)cc1` [I-220, 3-(5-chloro-1,3-dimethyl-1H-pyrazol-4-yl)-2-[4-(trifluoromethyl)phenoxy]pyridine] were, in that order, at most 0.1 µg/mL and at most 0.1 µg/mL.
As for `COc1ccccc1-c1cccnc1Oc1ccc(OCc2cccnc2)nc1` [I-174, 3-(2-methoxyphenyl)pyridin-2-{[6-(pyridin-3-ylmethoxy)pyridin-3-yl]oxy}pyridine], the minimal inhibitory concentration (MIC) in experiment [1] and in experiment [2] was at most 0.1 µg/mL each time.
Consider `FC(F)(F)c1ccc(Oc2ncccc2-c2cccc3ncnn23)cn1` [I-45, 5-(2-{[6-(trifluoromethyl)pyridin-3-yl]oxy}pyridin-3-yl)-[1,2,4]triazolo[1,5-a]pryidine], for which the MIC is 0.2 to 0.78 µg/mL (≈ 0.56 to 2.18 µM) in experiment [1] and 1.56 to 6.25 µg/mL (≈ 4.37 to 17.5 µM) in experiment [2].
Taken in the same sequence, the figures for `COC(=O)CN(C)c1ncc(Oc2ncccc2-c2cccnc2OC)cn1` [I-354, methyl 2-[(5-{[2′-methoxy-(3,3′-bipyridin)-2-yl]oxy}-pyrimidin-2-yl)(methyl)amino]acetate] were 0.2 to 0.78 µg/mL (≈ 0.524 to 2.05 µM) and at most 0.1 µg/mL.
The like results for `FC1(F)Oc2cccc(-c3cccnc3Oc3ccc(C(F)(F)F)nc3)c2O1` [I-39, 3-(2,2-difluorobenzo[1,3]dioxol-4-yl)-2-{[6-(trifluoromethyl)pyridin-3-yl]oxy}pyridine] were, in that order, 0.2 to 0.78 µg/mL (≈ 0.505 to 1.97 µM) and at most 0.1 µg/mL.
The like results for `COc1ncncc1-c1cccnc1Oc1ccc(C(F)F)c(C)c1` [I-457] were, in that order, at most 0.1 µg/mL and at most 0.1 µg/mL.
With `Cc1cc(Oc2ncccc2-c2cccc3c2OCC3)cnc1C(F)(F)F` [I-448], the MIC in experiment [1] and in experiment [2] was at most 0.1 µg/mL in each case.
With `COc1ccncc1-c1cccnc1Oc1ccc(SC)cc1` [I-241, 4′-methoxy-2-[4-(methylthio)phenoxy]-3,3′-bipyridine], the MIC in experiment [1] and in experiment [2] was at most 0.1 µg/mL in each case.
As for `Cc1ccncc1-c1cccnc1Oc1ccc(C(F)(F)F)nc1` [I-25], the minimal inhibitory concentration (MIC) in experiment [1] and in experiment [2] was 0.2 to 0.78 µg/mL (≈ 0.604 to 2.35 µM) throughout.
`COCC(C)(C)c1ccc(Oc2ncccc2-c2cnccc2OC)cc1` [I-275, 4′-methoxy-2-[4-(1-methoxy-2-methylpropan-2-yl)phenoxy]-3,3′-bipyridine]: the MIC in experiment [1] and in experiment [2] was 0.2 to 0.78 µg/mL (≈ 0.549 to 2.14 µM) each time.
Regarding `CCc1cc(Oc2ncccc2-c2cnccc2OC)ccc1C` [I-264, 2-(3-ethyl-4-methylphenoxy)-4′-methoxy-3,3′-bipyridine], the minimal inhibitory concentration (MIC) in experiment [1] and in experiment [2] was at most 0.1 µg/mL throughout.
Regarding `COc1c(F)cncc1-c1cccnc1Oc1ccc(C(F)(F)F)cc1` [I-212, 5′-fluoro-4′-methoxy-2-[4-(trifluoromethyl)phenoxy]-3,3′-bipyridine], the MIC in experiment [1] and in experiment [2] was at most 0.1 µg/mL in each case.
`COc1ccc(-c2cccnc2Oc2ccc(C(C)(F)F)nc2)c(OC)n1` [I-94, 2′-{[6-(1,1-difluoroethyl)pyridin-3-yl]oxy}-2,6-dimethoxy-3,3′-bipyridine]: the MIC in experiment [1] and in experiment [2] was at most 0.1 µg/mL each time.
Consider `COCCN(C)c1ncc(Oc2ncccc2-c2ccc(F)cc2OC)cn1` [I-188, 5-{[3-(4-fluoro-2-methoxyphenyl)pyridin-2-yl]oxy}-N-(2-methoxyethyl)-N-methylpyrimidin-2-amine], for which the MIC in experiment [1] and in experiment [2] was at most 0.1 µg/mL each time.
In the case of `COc1ccccc1-c1cccnc1Oc1ccc(C(F)(F)CN(C)OC)nc1` [I-150, N-[2,2-difluoro-2-(5-{[3-(2-methoxyphenyl)pyridin-2-yl]oxy}pyridin-2-yl)ethyl]-N,O-dimethylhydroxylamine], the MIC in experiment [1] and in experiment [2] was at most 0.1 µg/mL throughout.
With `COc1cccc(Cl)c1-c1cccnc1Cc1ccc(C(F)(F)F)nc1` [I-441], the minimal inhibitory concentration (MIC) in experiment [1] and in experiment [2] was at most 0.1 µg/mL in each case.
Regarding `CCOC(=O)CN(C)c1ncc(Oc2ncccc2-c2ccc(F)cc2OC)cn1` [I-386, ethyl 2-[(5-{[3-(4-fluoro-2-methoxyphenyl)pyridin-2-yl]oxy}-pyrimidin-2-yl)(methyl)amino]acetate], the MIC in experiment [1] and in experiment [2] was at most 0.1 µg/mL in each case.
As for `COc1ccccc1-c1cccnc1Oc1cnc(C(F)(F)F)nc1` [I-178], the minimal inhibitory concentration (MIC) in experiment [1] and in experiment [2] was at most 0.1 µg/mL in each case.
Regarding `COc1cc(F)ccc1-c1cccnc1Oc1cnc(Br)c(C)c1` [I-454], the MIC in experiment [1] and in experiment [2] was at most 0.1 µg/mL each time.
Turning to `CCc1ccc(Oc2ncccc2-c2cccc3ccnn23)cc1` [I-292, 7-[2-(4-ethylphenoxy)pyridin-3-yl]pyrazolo[1,5-a]pyridine], the MIC in experiment [1] and in experiment [2] was at most 0.1 µg/mL each time.
For `C=C(C)c1ncc(Oc2ncccc2-c2ccc(F)cc2OC)cn1` [I-378, 5-{[3-(4-fluoro-2-methoxyphenyl)pyridin-2-yl]oxy}-2-(prop-1-en-2-yl)pyrimidine], the MIC in experiment [1] and in experiment [2] was at most 0.1 µg/mL each time.
For the compound `c1cc(-c2cncnc2Oc2ccc3c(c2)CCC3)n2nccc2c1` [I-326, 7-{4-[(2,3-dihydro-1H-inden-5-yl)oxy]pyrimidin-5-yl}pyrazolo[1,5-a]pyridine], the MIC in experiment [1] and in experiment [2] was at most 0.1 µg/mL throughout.
In the case of `COc1ccncc1-c1cccnc1Oc1ccc(C(F)F)cc1` [I-294, 2-[4-(difluoromethyl)phenoxy]-4′-methoxy-3,3′-bipyridine], the MIC in experiment [1] and in experiment [2] was 0.2 to 0.78 µg/mL (≈ 0.609 to 2.38 µM) each time.
Take `COc1ncccc1-c1cccnc1Oc1cnc(I)nc1` [I-353]: the MIC in experiment [1] was 0.2 to 0.78 µg/mL (≈ 0.492 to 1.92 µM); in experiment [2] it was 1.56 to 6.25 µg/mL (≈ 3.84 to 15.4 µM).
Taken in the same sequence, the figures for `COCCN(C)c1ncc(Oc2ncccc2-c2cccc3c2OCC3)cn1` [I-450] were at most 0.1 µg/mL and at most 0.1 µg/mL.
Taken in the same sequence, the figures for `FC(F)(F)c1ccc(Nc2ncncc2-c2cccc3ccnn23)cc1` [I-362, 5-(pyrazolo[1,5-a]pyridin-7-yl)-N-[4-(trifluoromethyl)phenyl]pyrimidin-4-amine] were at most 0.1 µg/mL and at most 0.1 µg/mL.
Taken in the same sequence, the figures for `CCOc1ccccc1-c1cccnc1Oc1ccc(C(F)(F)F)nc1` [I-17, 3-(2-ethoxyphenyl)-2-{[6-(trifluoromethyl)pyridin-3-yl]oxy}pyridine] were 0.2 to 0.78 µg/mL (≈ 0.555 to 2.16 µM) and 0.2 to 0.78 µg/mL (≈ 0.555 to 2.16 µM).
Consider `Cc1cnccc1-c1cccnc1Oc1ccc(C(F)(F)F)cc1` [I-205], for which the MIC in experiment [1] and in experiment [2] was at most 0.1 µg/mL throughout.
In the case of `COc1ccc(F)cc1-c1cccnc1Oc1cnc(C(F)F)c(C)c1` [I-122, 2-(difluoromethyl)-5-{[3-(5-fluoro-2-methoxyphenyl)pyridin-2-yl]oxy}-3-methylpyridine], the minimal inhibitory concentration (MIC) in experiment [1] and in experiment [2] was at most 0.1 µg/mL throughout.
On to `CCc1ccc(Oc2ncccc2-c2cnccc2OC)cc1C` [I-263, 2-(4-ethyl-3-methylphenoxy)-4′-methoxy-3,3′-bipyridine], for which the MIC in experiment [1] and in experiment [2] was at most 0.1 µg/mL each time.
On to `COc1ncccc1-c1cccnc1Oc1ccc(CCOC(C)=O)cc1` [I-397, 4-{[(2′-methoxy)-(3,3′-bipyridin)-2-yl]oxy}phenethyl acetate], for which the MIC in experiment [1] and in experiment [2] was at most 0.1 µg/mL throughout.
Take `COc1ccccc1-c1ccc(C)nc1Oc1ccc(C(F)(F)F)nc1` [I-67]: the MIC in experiment [1] and in experiment [2] was 0.2 to 0.78 µg/mL (≈ 0.555 to 2.16 µM) in each case.
Regarding `CCc1ccc(Oc2ncccc2-c2cccnc2OC)cn1` [I-126, 2-[(6-ethylpyridin-3-yl)oxy]-2′-methoxy-3,3′-bipyridine], the MIC in experiment [1] and in experiment [2] was 0.2 to 0.78 µg/mL (≈ 0.651 to 2.54 µM) in each case.
Regarding `COc1ccccc1-c1cccnc1Nc1ccc(C(F)(F)F)nc1` [I-313], the MIC in experiment [1] and in experiment [2] was at most 0.1 µg/mL each time.
Regarding `COc1ccncc1-c1cccnc1Oc1ccc(C(C)(F)F)cc1` [I-297, 2-[4-(1,1-difluoroethyl)-phenoxy]-4′-methoxy-3,3′-bipyridine], the MIC in experiment [1] and in experiment [2] was at most 0.1 µg/mL throughout.
As to `CCOC(=O)c1ccc(Oc2ncccc2-c2cnccc2C)cc1` [I-419], the MIC in experiment [1] and in experiment [2] was at most 0.1 µg/mL in each case.
